Assay results published in patent US8501786B2, “Hydroxymethyl pyrrolidines as beta 3 adrenergic receptor agonists” (Merck Sharp & Dohme Corp., priority 2009, dated 2013).
Structures can show the parent of a compound that is named as a salt.

molecular target: T1, human β3 adrenergic receptor (Homo sapiens, UniProt P13945); assay: Functional assay: cAMP production (LANCE TR-FRET) in CHO cells stably transfected with cloned β3 adrenergic receptor; assay type: cell-based; details: Table 2; cAMP production, CHO cells expressing human β3 AR; read-out: Human β3 functional
T1 construct: stably transfected with the cloned β-adrenergic receptor (β1, β2 or β3); expressed in transfected cells; host or cells: Chinese hamster ovary (CHO) cells, stably transfected
T1 sequence (P13945 whole entry): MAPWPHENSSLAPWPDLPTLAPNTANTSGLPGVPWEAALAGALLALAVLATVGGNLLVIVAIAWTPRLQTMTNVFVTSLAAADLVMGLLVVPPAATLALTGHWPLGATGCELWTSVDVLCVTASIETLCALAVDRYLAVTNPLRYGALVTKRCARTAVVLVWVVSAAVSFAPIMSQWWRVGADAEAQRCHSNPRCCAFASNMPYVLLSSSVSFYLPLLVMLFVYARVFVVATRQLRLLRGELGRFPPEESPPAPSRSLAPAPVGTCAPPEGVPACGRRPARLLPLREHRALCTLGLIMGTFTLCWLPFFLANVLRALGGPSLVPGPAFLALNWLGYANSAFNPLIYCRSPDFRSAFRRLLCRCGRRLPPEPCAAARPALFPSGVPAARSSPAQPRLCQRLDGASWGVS

Row | SMILES | EC50
1 | O=C(Cc1csc(-c2ccccn2)n1)Nc1ccc(CC2CC[C@H]([C@H](O)c3cccnc3)N2)cc1 (some centres unmarked) [Example 81] | 11 to 100 nM
2 | O=C(Cc1c(-c2ccccc2)[nH]c2ccccc12)Nc1ccc(CC2CC[C@H]([C@H](O)c3cccnc3)N2)cc1 (some centres unmarked) [Example 16] | 11 to 100 nM
3 | O=C(Cc1c(F)cccc1F)Nc1ccc(CC2CC[C@H]([C@H](O)c3cccnc3)N2)cc1 (some centres unmarked) [Example 78] | 1 to 10 nM
4 | O=C(Cc1ccccn1)Nc1ccc(CC2CC[C@H]([C@H](O)c3cccnc3)N2)cc1 (some centres unmarked) [Example 14] | 11 to 100 nM
5 | O=C(Nc1ccc(CC2CC[C@H]([C@H](O)c3cccnc3)N2)cc1)c1c[nH]c2cccnc12 (some centres unmarked) [Example 54] | 101 to 1000 nM
6 | O=C(Cc1ccccc1F)Nc1ccc(CC2CC[C@H]([C@H](O)c3cccnc3)N2)cc1 (some centres unmarked) [Example 77] | 11 to 100 nM
7 | NC(=O)c1nn(CC(=O)Nc2ccc(CC3CC[C@H]([C@H](O)c4cccnc4)N3)cc2)c(=O)c2ccccc12 (some centres unmarked) [Example 56] | 1 to 10 nM
8 | O=C(Cc1c[nH]c2ccccc12)Nc1ccc(CC2CC[C@H]([C@H](O)c3cccnc3)N2)cc1 (some centres unmarked) [Example 19] | 1 to 10 nM
9 | O=C(Cn1c(=O)cnc2ccccc21)Nc1ccc(CC2CC[C@H]([C@H](O)c3cccnc3)N2)cc1 (some centres unmarked) [Example 58] | 1 to 10 nM
10 | O=C(Cn1ccncc1=O)Nc1ccc(CC2CC[C@H]([C@H](O)c3cccnc3)N2)cc1 (some centres unmarked) [Example 63] | 11 to 100 nM
11 | COc1cc2ncn(CC(=O)Nc3ccc(CC4CC[C@H]([C@H](O)c5cccnc5)N4)cc3)c(=O)c2cc1OC (some centres unmarked) [Example 51] | 1 to 10 nM

Results, then the compound that gave them:

Row | EC50 | SMILES
12 | 11 to 100 nM | O=C(Cc1nnn[nH]1)Nc1ccc(CC2CC[C@H]([C@H](O)c3cccnc3)N2)cc1 (some centres unmarked) [Example 55]
13 | 11 to 100 nM | O=C(CN1CCCOC1=O)Nc1ccc(CC2CC[C@H]([C@H](O)c3cccnc3)N2)cc1 (some centres unmarked) [Example 85]
14 | 101 to 1000 nM | CN1CCN(CC(=O)Nc2ccc(CC3CC[C@H]([C@H](O)c4cccnc4)N3)cc2)C1=O (some centres unmarked) [Example 86]
15 | 11 to 100 nM | O=C(Cc1n[nH]c(=O)[nH]1)Nc1ccc(CC2CC[C@H]([C@H](O)c3cccnc3)N2)cc1 (some centres unmarked) [Example 73]
16 | 101 to 1000 nM | Cc1nnc(CC(=O)Nc2ccc(CC3CC[C@H]([C@H](O)c4cccnc4)N3)cc2)[nH]1 (some centres unmarked) [Example 23]
17 | 11 to 100 nM | Cc1nonc1CC(=O)Nc1ccc(CC2CC[C@H]([C@H](O)c3cccnc3)N2)cc1 (some centres unmarked) [Example 68]
18 | 11 to 100 nM | O=C(Cc1csc(=S)[nH]1)Nc1ccc(CC2CC[C@H]([C@H](O)c3cccnc3)N2)cc1 (some centres unmarked) [Example 74]

same assay, conditions: Table 3; cAMP production, CHO cells expressing human β3 AR; read-out: Human β3 functional

Row | SMILES | EC50
19 | CC(C(=O)Nc1ccc(CC2CC[C@H]([C@H](O)c3cccnc3)N2)cc1)n1cc(C(=O)O)nn1 (single isomer, unassigned) [Example 198] | 11 to 100 nM
20 | CC(C(=O)Nc1ccc(CC2CC[C@H]([C@H](O)c3cccnc3)N2)cc1)n1ccc(C(N)=O)n1 (single isomer, unassigned) [Example 203] | 101 to 1000 nM
21 | CC(C(=O)Nc1ccc(CC2CC[C@H]([C@H](O)c3cccnc3)N2)cc1)n1nncc1C(=O)O (single isomer, unassigned) [Example 206] | 1 to 10 nM
22 | CCC(C(=O)Nc1ccc(CC2CC[C@H]([C@H](O)c3cccnc3)N2)cc1)n1cccn1 (single isomer, unassigned) [Example 184] | 1 to 10 nM
23 | CC(C(=O)Nc1ccc(CC2CC[C@H]([C@H](O)c3cccnc3)N2)cc1)n1cccn1 (single isomer, unassigned) [Example 97] | 11 to 100 nM
24 | CC(C(=O)Nc1ccc(CC2CC[C@H]([C@H](O)c3cccnc3)N2)cc1)n1cnccc1=O (single isomer, unassigned) [Example 164] | 1 to 10 nM
25 | CC(C(=O)Nc1ccc(CC2CC[C@H]([C@H](O)c3cccnc3)N2)cc1)n1ccnn1 (single isomer, unassigned) [Example 149] | 1 to 10 nM
26 | CC(C(=O)Nc1ccc(CC2CC[C@H]([C@H](O)c3cccnc3)N2)cc1)n1cc(C(=O)O)nn1 (single isomer, unassigned) [Example 199] | 11 to 100 nM
27 | CC(C(=O)Nc1ccc(CC2CC[C@H]([C@H](O)c3cccnc3)N2)cc1)n1cccnc1=O (single isomer, unassigned) [Example 166] | 1 to 10 nM
28 | CC(C(=O)Nc1ccc(C[C@@H]2CC[C@H]([C@H](O)c3cccnc3)N2)cc1)n1cccnc1=O (single isomer, unassigned) [Example 167] | 1 to 10 nM
29 | COCCC(C(=O)Nc1ccc(CC2CC[C@H]([C@H](O)c3cccnc3)N2)cc1)n1cccn1 (single isomer, unassigned) [Example 220] | 1 to 10 nM

The next lines start with the values.

Row | EC50 | SMILES
30 | 11 to 100 nM | O=C(O)c1nc2c(s1)CCC2C(=O)Nc1ccc(CC2CC[C@H]([C@H](O)c3cccnc3)N2)cc1 (single isomer, unassigned) [Example 138]
31 | 1 to 10 nM | O=C(Nc1ccc(CC2CC[C@H]([C@H](O)c3cccnc3)N2)cc1)C1CCc2sc(F)nc21 (single isomer, unassigned) [Example 156]
32 | 11 to 100 nM | O=C(Nc1ccc(CC2CC[C@H]([C@H](O)c3cccnc3)N2)cc1)C1CCCc2ccnn21 (single isomer, unassigned) [Example 140]
33 | 101 to 1000 nM | CCc1nc2c(s1)CCC2C(=O)Nc1ccc(CC2CC[C@H]([C@H](O)c3cccnc3)N2)cc1 (single isomer, unassigned) [Example 119]
34 | 101 to 1000 nM | Cc1nc2c(s1)CCC2C(=O)Nc1ccc(CC2CC[C@H]([C@H](O)c3cccnc3)N2)cc1 (single isomer, unassigned) [Example 118]
35 | 11 to 100 nM | CC(C(=O)Nc1ccc(CC2CC[C@H]([C@H](O)c3cccnc3)N2)cc1)c1nnn(C)n1 (single isomer, unassigned) [Example 180]
36 | 11 to 100 nM | O=C(Cc1nc2c(s1)CCC2C(=O)Nc1ccc(CC2CC[C@H]([C@H](O)c3cccnc3)N2)cc1)NCc1ccccc1 (single isomer, unassigned) [Example 135]
37 | 101 to 1000 nM | Cc1nc2c(s1)CCC2(C)C(=O)Nc1ccc(CC2CC[C@H]([C@H](O)c3cccnc3)N2)cc1 (single isomer, unassigned) [Example 130]
38 | 1 to 10 nM | Cc1nc2c(s1)CCCC2C(=O)Nc1ccc(CC2CC[C@H]([C@H](O)c3cccnc3)N2)cc1 (single isomer, unassigned) [Example 131]
39 | < 1 nM | Nc1nc2c(s1)CCC2C(=O)Nc1ccc(CC2CC[C@H]([C@H](O)c3cccnc3)N2)cc1 (single isomer, unassigned) [Example 113]
40 | 1000 to 3000 nM | Cc1nc2c(s1)CCC2(C)C(=O)Nc1ccc(CC2CC[C@H]([C@H](O)c3cccnc3)N2)cc1 (single isomer, unassigned) [Example 129]
41 | 1 to 10 nM | O=C(Nc1ccc(CC2CC[C@H]([C@H](O)c3cccnc3)N2)cc1)C1CCc2nccc(=O)n21 (single isomer, unassigned) [Example 160]
42 | 11 to 100 nM | Cc1ccn(C(C)C(=O)Nc2ccc(CC3CC[C@H]([C@H](O)c4cccnc4)N3)cc2)n1 (single isomer, unassigned) [Example 99]
43 | 1 to 10 nM | O=C(O)c1nc2c(s1)CCC2C(=O)Nc1ccc(CC2CC[C@H]([C@H](O)c3cccnc3)N2)cc1 (single isomer, unassigned) [Example 137]
44 | < 1 nM | CC(C(=O)Nc1ccc(CC2CC[C@H]([C@H](O)c3cccnc3)N2)cc1)c1cscn1 (single isomer, unassigned) [Example 195]
45 | 101 to 1000 nM | O=C(Nc1ccc(CC2CC[C@H]([C@H](O)c3cccnc3)N2)cc1)C1CCCc2ccnn21 (single isomer, unassigned) [Example 139]
46 | 1 to 10 nM | O=C(Nc1ccc(CC2CC[C@H]([C@H](O)c3cccnc3)N2)cc1)C1CCc2sc(CO)nc21 (single isomer, unassigned) [Example 188]

same assay, conditions: Table 4; cAMP production, CHO cells expressing human β3 AR; read-out: Human β3 functional

Row | EC50 | SMILES
47 | 101 to 1000 nM | N#Cc1ccccc1S(=O)(=O)Nc1ccc(CC2CC[C@H]([C@H](O)c3cccnc3)N2)cc1 (some centres unmarked) [Example 235]
48 | 101 to 1000 nM | O=S(=O)(Nc1ccc(CC2CC[C@H]([C@H](O)c3cccnc3)N2)cc1)c1ccccc1I (some centres unmarked) [Example 238]
49 | 1 to 10 nM | O=S(=O)(Nc1ccc(CC2CC[C@H]([C@H](O)c3cccnc3)N2)cc1)c1ccc(-c2nc(-c3ccc(C(F)(F)F)cc3)cs2)cc1 (some centres unmarked) [Example 223]
50 | 101 to 1000 nM | O=S(=O)(Nc1ccc(CC2CC[C@H]([C@H](O)c3cccnc3)N2)cc1)c1ccc2cnccc2c1 (some centres unmarked) [Example 228]

same assay, conditions: Table 6; human β3 functional activity given as ranges; read-out: Human β3 functional

Row | EC50 | SMILES
51 | 11 to 100 nM | CC(NS(=O)(=O)c1ccccc1F)C(=O)Nc1ccc(C[C@@H]2CC[C@H]([C@H](O)c3cccnc3)N2)cc1 (some centres unmarked) [Example 256]
52 | 11 to 100 nM | CC(NC(=O)c1cnccn1)C(=O)Nc1ccc(C[C@@H]2CC[C@H]([C@H](O)c3cccnc3)N2)cc1 (some centres unmarked) [Example 253]

same assay, conditions: cAMP production, CHO cells expressing human β3 AR; read-out: human Beta-3 agonist functional activity

Row | SMILES | EC50
53 | C[C@H](C(=O)Nc1ccc(C[C@@H]2CC[C@H]([C@H](O)c3cccnc3)N2)cc1)c1ccccn1 (single isomer, unassigned) [Example 93, trifluoroacetic acid salt] | < 100 nM
54 | O=S(=O)(Nc1ccc(C[C@@H]2CC[C@H]([C@H](O)c3cccnc3)N2)cc1)c1ccc(-c2nc(-c3ccc(C(F)(F)F)cc3)cs2)cc1 [Example 222, N-[4-({(2S,5R)-5-[(R)-hydroxy(pyridin-3-yl)methyl]pyrrolidin-2-yl}methyl)phenyl]-4-{4-[4-(trifluoromethyl)phenyl]-1,3-thiazol-2-yl}benzenesulfonamide, trifluoroacetic acid salt] | < 10 nM

Other lines, results leading:

Row | EC50 | SMILES
55 | < 1000 nM | O=C(Nc1ccc(CC2CCC(C(O)c3cccnc3)N2)cc1Br)C1CCc2sc(Br)nc21 (single isomer, unassigned) [Example 240, (4S or 4R)-2-bromo-N-[2-bromo-4-({(2S,5R)-5-[(R)-hydroxy(pyridin-3-yl)methyl]pyrrolidin-2-yl}methyl)phenyl]-5,6-dihydro-4H-cyclopenta[d][1,3]thiazole-4-carboxamide]
56 | < 100 nM | O=C(CN1CCCC1=O)Nc1ccc(C[C@@H]2CC[C@H]([C@H](O)c3cccnc3)N2)cc1 [Example 2, N-[4-({(2S,5R)-5-[(R)-Hydroxy(pyridin-3-yl)methyl]pyrrolidin-2-yl}methyl)phenyl]-2-(2-oxopyrrolidin-1-yl)acetamide, trfluoroacetic acid salt]
